This is an account of results in patent US11959067B2, “Bifidobacterium lactis strain for preventing or treating colitis and method for preventing or alleviating colitis” (HARBIN SUNFLOWER PHARMACEUTICAL CO., LTD., priority 2021, dated 2024).

Test [1] deals with CTX-induced immunocompromised mouse model. In kind it is in vivo. The protocol:
(§1) SPF BALB/c male mice that each were 6 to 8 weeks old and weighed 18 g to 22 g were provided by Liaoning Changsheng Biotechnology Co., Ltd., with animal license No.: SCXK (Liao) 2020-0001. The BALB/c mice were randomly divided into 7 groups, with 8 mice in each group. Mice in the blank group and model group were each orally gavaged with 0.4 mL of NS, mice in the positive control group were each orally gavaged with levamisole hydrochloride (LEV) (10 mg·kg^−1), and mice in the B. lactis strain XLTG11 dose groups were orally gavaged with 0.4 mL of B. lactis strain XLTG11 suspensions at doses of 1×10^9 cfu, 1×10^8 cfu, 1×10^7 cfu, and 1×10^6 cfu per mouse, respectively. The mice were orally gavaged continuously for 28 d, during which the mice could eat and drink freely. On day 23 and day 24 after the oral gavage, mice in the model group, positive control group, and B. lactis strain XLTG11 dose groups were intraperitoneally injected with CTX (40 mg·kg^−1), and mice in the blank group were intraperitoneally injected with an equal volume of NS.

The test system is the same in test [2]. Nature of the test: Pathological changes of small intestinal mucosal tissue (HE staining) in CTX mice. In kind it is in vivo, BALB/c male mice. The conditions noted are these: LEV 10 mg·kg^−1, CTX mice, FIG. 9. The protocol:
as §1

Test [3] shares this test system. In kind it is in vivo. Conditions: serum, CTX mice, LEV 10 mg·kg^−1. As to the method:
as §1
min after the last oral gavage to mice in each group, eyeballs were removed, the whole blood was collected and centrifuged at 3000 r·min^−1 for 10 min, and the resulting serum was collected, dispensed, and frozen in a −80° C. refrigerator for test. Serum IgA, IgG, IL-2, IL-6, IFN-γ, and TNF-α levels were determined with an ELISA kit, and specific operation steps were conducted according to the instructions.

For test [4] the test system is unchanged. In words: Villus height of small intestinal mucosa in CTX mice. In kind it is in vivo, BALB/c male mice. Conditions: LEV 10 mg·kg^−1, vs model group, P<0.05, FIG. 10. As to the method:
as §1

Structures can show the parent of a compound that is named as a salt.

On to `c1ccc([C@H]2CN3CCSC3=N2)cc1` [Positive control, levamisole hydrochloride], for which the Toe thickness difference in test [1] (LEV 10 mg·kg^−1, CTX mice, before vs 24 h after SRBC injection) is listed as 0.054 cm. The same compound gave a Goblet cell number in test [1] (LEV 10 mg·kg^−1, CTX mice, number of goblet cells/epithelial length (mm)) of 25.22. Besides, the Spleen index in test [1] (LEV 10 mg·kg^−1 oral gavage 28 d, CTX mice, spleen mass (mg)/body mass (g)) is on record as 2.97. The compound also returned a Thymus index in test [1] (LEV 10 mg·kg^−1 oral gavage 28 d, CTX mice, thymus mass (mg)/body mass (g)) of 1.42. In addition, the “damage of the small intestinal mucosal tissue” value in test [2] is “improved”. For the same compound, in test [3], the IFN-γ is 466.78 ± 62.60 ng/L, the IL-2 is 666.32 ± 134.02 ng/L, the IL-6 worked out at 77.12 ± 17.49 pg/mL and the IgA turned out to be 55.95 ± 3.66 ng/mL. In test [3], the IgG came out at 467.59 ± 54.35 ng/mL and the TNF-α stood at 496.86 ± 49.31 ng/L. Moreover, the “small intestinal villus height” value in test [4] is “increased”.
